A short description of the data set: Test 5: concentration of the test compounds in tumor. As to conditions: mouse, po, 25 mg/kg, 25 mg/kg po. The format is in vivo. The procedure: Administration method: The test compound scaled to a given weight was suspended in 0.5% methylcellulose to prepare an administration solution. A mouse was weighed, and the administration solution was orally administered to the mouse depending on its weight.
The picked tumor was put into a tube, and 1 mL of MeOH containing an internal standard was added to the tube. The internal standard used herein was bezafibrate, the concentration of which was 200 nM. The mixture was homogenized with an electric homogenizer to prepare a tumor extract. And, a blank tumor extract was prepared with a tumor derived from an un-treated animal in the same manner. The 100 μg/mL standard solution was diluted with MeOH to prepare a sample for calibration curve which has the desired concentration. To 50 μL of the sample for calibration curve was added 50 μL of the blank tumor extract to prepare a sample for tumor calibration curve. To 50 μL of the tumor extract was added 50 μL of MeOH to prepare a sample for analyzing tumor. Each 5 μL of the samples was analyzed with an LC-MS. The calibration curve was prepared based on the peak ratio of MS peak area of the test sample per that of the internal standard, and the concentration of the sample for tumor calibration curve. The concentration/weight of the test compound in each sample was calculated based on the peak ratio of each sample, and the calibration curve. Then, the obtained weight was divided by the weight in tumor to calculate the concentration of the test compound in tumor.

Where [1] appears, read: animal 1, read-out: Concentration in tumor, animal 1.
[2] abbreviates: animal 2, read-out: Concentration in tumor, animal 2.

Data on one compound can be found in US20190241535A1, “3-SUBSTITUTED CARBONYL-NAPHTHO[2,3-B]FURANE DERIVATIVE OR PHARMACEUTICALLY ACCEPTABLE SALT THEREOF” (Boston Biomedical, Inc., priority 2014, published 2019).

Like-named read-outs stand apart in the source and are kept apart here.

Consider `CN1CCN(C(=O)c2c(C(F)(F)F)oc3c2C(=O)c2ccccc2C3=O)CC1` [Example 8, 3-(4-Methylpiperazine-1-carbonyl)-2-(trifluoromethyl)naphtho[2,3-b]furan-4,9-dione], for which the concentration at 2 hr by setting is: under setting [1], 498 ng/mL; under setting [2], 260 ng/mL; (animal 3, read-out: Concentration in tumor, animal 3) 47 ng/mL; (mean of 3, read-out: Concentration in tumor, mean) 268 ng/mL. Further, the concentration at 6 hr under setting [1] amounted to 329 ng/mL and the concentration at 6 hr under setting [2] amounted to 157 ng/mL.
